According to patent US9738634B2, “Heterocyclic amide compound and herbicide” (SYNGENTA PARTICIPATIONS AG, priority 2013, dated 2017):

What was measured:
Assay type in all cases: in vivo
barnyard grass [1] = test: Test Example 1: weedkilling efficacy, preemergent weed treatment in the submerged state; A: barnyard grass; settings: treatment dosage 252 g/ha
How it was run: (§1)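 Pre-emergence application onto floodwater (4 cm, alluvial soil) on the day of sowing, dose expressed as g/ha from diluted emulsion formulation. Weeds sown with 2.5-leaf transplanted rice as crop; plants held at 25–30 °C in greenhouse and scored against assessment criteria after 3 weeks.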

bulrush [2] = test: Test Example 1: weedkilling efficacy, preemergent weed treatment in the submerged state; B: bulrush; settings: treatment dosage 252 g/ha
How it was run: as §1

oval-leafed pondweed [3] = test: Test Example 1: weedkilling efficacy, preemergent weed treatment in the submerged state; C: oval-leafed pondweed; settings: treatment dosage 252 g/ha
How it was run: as §1

transplanted rice = test: Test Example 1: preemergent weed treatment in the submerged state, effect on crop; a: transplanted rice; settings: treatment dosage 252 g/ha
How it was run: as §1

barnyard grass [4] = test: Test Example 2: weedkilling efficacy, growth period weed treatment in the submerged state; A: barnyard grass; settings: treatment dosage 252 g/ha
How it was run: (§2)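 Weeds treated at the 1-2 leaf stage by application of diluted emulsion onto floodwater (4 cm depth, alluvial soil) at specified g/ha. Grown in greenhouse at 25 to 30° C; herbicidal effect rated three weeks after treatment.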

bulrush [5] = test: Test Example 2: weedkilling efficacy, growth period weed treatment in the submerged state; B: bulrush; settings: treatment dosage 252 g/ha
How it was run: as §2

oval-leafed pondweed [6] = test: Test Example 2: weedkilling efficacy, growth period weed treatment in the submerged state; C: oval-leafed pondweed; settings: treatment dosage 252 g/ha
How it was run: as §2

crabgrass [7] = test: Test Example 3: weedkilling efficacy through soil treatment; D: crabgrass; settings: treatment dosage 315 g/ha
How it was run: (§3)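 Crop and weed responses were judged three weeks after a uniform surface spray of the water-diluted emulsion at the given g/ha rate. Seeds sat beneath about 1.5 cm of sterilized diluvial soil, and boxes stood in a greenhouse at 25 to 30° C.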

green foxtail [8] = test: Test Example 3: weedkilling efficacy through soil treatment; E: green foxtail; settings: treatment dosage 315 g/ha
How it was run: as §3

wild oat = test: Test Example 3: weedkilling efficacy through soil treatment; G: wild oat; settings: treatment dosage 315 g/ha
How it was run: as §3

black-grass [9] = test: Test Example 3: weedkilling efficacy through soil treatment; H: black-grass; settings: treatment dosage 315 g/ha
How it was run: as §3

Italian ryegrass [10] = test: Test Example 3: weedkilling efficacy through soil treatment; I: Italian ryegrass; settings: treatment dosage 315 g/ha
How it was run: as §3

Indian mallow [11] = test: Test Example 3: weedkilling efficacy through soil treatment; K: Indian mallow; settings: treatment dosage 315 g/ha
How it was run: as §3

redroot pigweed [12] = test: Test Example 3: weedkilling efficacy through soil treatment; L: redroot pigweed; settings: treatment dosage 315 g/ha
How it was run: as §3

fig-leafed goosefoot [13] = test: Test Example 3: weedkilling efficacy through soil treatment; M: fig-leafed goosefoot; settings: treatment dosage 315 g/ha
How it was run: as §3

chickweed [14] = test: Test Example 3: weedkilling efficacy through soil treatment; N: chickweed; settings: treatment dosage 315 g/ha
How it was run: as §3

birds-eye speedwell [15] = test: Test Example 3: weedkilling efficacy through soil treatment; p: birds-eye speedwell; settings: treatment dosage 315 g/ha
How it was run: as §3

directly sown rice [16] = test: Test Example 3: soil treatment, effect on crop; b: directly sown rice; settings: treatment dosage 315 g/ha
How it was run: as §3

corn [17] = test: Test Example 3: soil treatment, effect on crop; c: corn; settings: treatment dosage 315 g/ha
How it was run: as §3

soybean [18] = test: Test Example 3: soil treatment, effect on crop; d: soybean; settings: treatment dosage 315 g/ha
How it was run: as §3

wheat [19] = test: Test Example 3: soil treatment, effect on crop; e: wheat; settings: treatment dosage 315 g/ha
How it was run: as §3

beet [20] = test: Test Example 3: soil treatment, effect on crop; f: beet; settings: treatment dosage 315 g/ha
How it was run: as §3

crabgrass [21] = test: Test Example 4: weedkilling efficacy by foliar treatment; D: crabgrass; settings: treatment dosage 315 g/ha
How it was run: (§4)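 Seeds are spot-sown into sterilized diluvial soil and covered with about 1.5 cm of soil. After 14 days' greenhouse growth at 25 to 30° C, plants are sprayed on stems and leaves with diluted emulsion at the stated g/ha rate, then scored at 3 weeks.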

green foxtail [22] = test: Test Example 4: weedkilling efficacy by foliar treatment; E: green foxtail; settings: treatment dosage 315 g/ha
How it was run: as §4

black-grass [23] = test: Test Example 4: weedkilling efficacy by foliar treatment; H: black-grass; settings: treatment dosage 315 g/ha
How it was run: as §4

Italian ryegrass [24] = test: Test Example 4: weedkilling efficacy by foliar treatment; I: Italian ryegrass; settings: treatment dosage 315 g/ha
How it was run: as §4

Indian mallow [25] = test: Test Example 4: weedkilling efficacy by foliar treatment; K: Indian mallow; settings: treatment dosage 315 g/ha
How it was run: as §4

redroot pigweed [26] = test: Test Example 4: weedkilling efficacy by foliar treatment; L: redroot pigweed; settings: treatment dosage 315 g/ha
How it was run: as §4

fig-leafed goosefoot [27] = test: Test Example 4: weedkilling efficacy by foliar treatment; M: fig-leafed goosefoot; settings: treatment dosage 315 g/ha
How it was run: as §4

chickweed [28] = test: Test Example 4: weedkilling efficacy by foliar treatment; N: chickweed; settings: treatment dosage 315 g/ha
How it was run: as §4

catchweed = test: Test Example 4: weedkilling efficacy by foliar treatment; O: catchweed; settings: treatment dosage 315 g/ha
How it was run: as §4

birds-eye speedwell [29] = test: Test Example 4: weedkilling efficacy by foliar treatment; p: birds-eye speedwell; settings: treatment dosage 315 g/ha
How it was run: as §4

directly sown rice [30] = test: Test Example 4: foliar treatment, effect on crop; b: directly sown rice; settings: treatment dosage 315 g/ha
How it was run: as §4

corn [31] = test: Test Example 4: foliar treatment, effect on crop; c: corn; settings: treatment dosage 315 g/ha
How it was run: as §4

soybean [32] = test: Test Example 4: foliar treatment, effect on crop; d: soybean; settings: treatment dosage 315 g/ha
How it was run: as §4

wheat [33] = test: Test Example 4: foliar treatment, effect on crop; e: wheat; settings: treatment dosage 315 g/ha
How it was run: as §4

beet [34] = test: Test Example 4: foliar treatment, effect on crop; f: beet; settings: treatment dosage 315 g/ha
How it was run: as §4

CC1=C(c2ccsc2)C(=O)N(C(C)(C)C(=O)Nc2cccc(F)n2)CO1 [B-2-04]
A (barnyard grass) weedkilling efficacy grade (barnyard grass [1]): 5 (weed kill ratio 90% or more, (practically complete withering)) | B (bulrush) weedkilling efficacy grade (bulrush [2]): 5 (weed kill ratio 90% or more, (practically complete withering)) | C (oval-leafed pondweed) weedkilling efficacy grade (oval-leafed pondweed [3]): 5 (weed kill ratio 90% or more, (practically complete withering)) | a (transplanted rice) effect on crop grade (transplanted rice): 3 (weed kill ratio 40% or more, less than 70%) | A (barnyard grass) weedkilling efficacy grade (barnyard grass [4]): 5 (weed kill ratio 90% or more, (practically complete withering)) | B (bulrush) weedkilling efficacy grade (bulrush [5]): 5 (weed kill ratio 90% or more, (practically complete withering)) | C (oval-leafed pondweed) weedkilling efficacy grade (oval-leafed pondweed [6]): 5 (weed kill ratio 90% or more, (practically complete withering)) | D (crabgrass) weedkilling efficacy grade (crabgrass [7]): 5 (weed kill ratio 90% or more, (practically complete withering)) | E (green foxtail) weedkilling efficacy grade (green foxtail [8]): 5 (weed kill ratio 90% or more, (practically complete withering)) | G (wild oat) weedkilling efficacy grade (wild oat): 5 (weed kill ratio 90% or more, (practically complete withering)) | H (black-grass) weedkilling efficacy grade (black-grass [9]): 5 (weed kill ratio 90% or more, (practically complete withering)) | I (Italian ryegrass) weedkilling efficacy grade (Italian ryegrass [10]): 5 (weed kill ratio 90% or more, (practically complete withering)) | K (Indian mallow) weedkilling efficacy grade (Indian mallow [11]): 4 (weed kill ratio 70% or more, less than 90%) | L (redroot pigweed) weedkilling efficacy grade (redroot pigweed [12]): 4 (weed kill ratio 70% or more, less than 90%) | M (fig-leafed goosefoot) weedkilling efficacy grade (fig-leafed goosefoot [13]): 5 (weed kill ratio 90% or more, (practically complete withering)) | N (chickweed) weedkilling efficacy grade (chickweed [14]): 5 (weed kill ratio 90% or more, (practically complete withering)) | P (birds-eye speedwell) weedkilling efficacy grade (birds-eye speedwell [15]): 5 (weed kill ratio 90% or more, (practically complete withering)) | b (directly sown rice) effect on crop grade (directly sown rice [16]): 5 (weed kill ratio 90% or more, (practically complete withering)) | c (corn) effect on crop grade (corn [17]): 1 (weed kill ratio 5% or more, less than 20%) | d (soybean) effect on crop grade (soybean [18]): 0 (weed kill ratio 5% or less (practically no effect)) | e (wheat) effect on crop grade (wheat [19]): 5 (weed kill ratio 90% or more, (practically complete withering)) | f (beet) effect on crop grade (beet [20]): 5 (weed kill ratio 90% or more, (practically complete withering)) | D (crabgrass) weedkilling efficacy grade (crabgrass [21]): 5 (weed kill ratio 90% or more, (practically complete withering)) | E (green foxtail) weedkilling efficacy grade (green foxtail [22]): 5 (weed kill ratio 90% or more, (practically complete withering)) | H (black-grass) weedkilling efficacy grade (black-grass [23]): 5 (weed kill ratio 90% or more, (practically complete withering)) | I (Italian ryegrass) weedkilling efficacy grade (Italian ryegrass [24]): 5 (weed kill ratio 90% or more, (practically complete withering)) | K (Indian mallow) weedkilling efficacy grade (Indian mallow [25]): 5 (weed kill ratio 90% or more, (practically complete withering)) | L (redroot pigweed) weedkilling efficacy grade (redroot pigweed [26]): 5 (weed kill ratio 90% or more, (practically complete withering)) | M (fig-leafed goosefoot) weedkilling efficacy grade (fig-leafed goosefoot [27]): 5 (weed kill ratio 90% or more, (practically complete withering)) | N (chickweed) weedkilling efficacy grade (chickweed [28]): 4 (weed kill ratio 70% or more, less than 90%) | O (catchweed) weedkilling efficacy grade (catchweed): 4 (weed kill ratio 70% or more, less than 90%) | P (birds-eye speedwell) weedkilling efficacy grade (birds-eye speedwell [29]): 5 (weed kill ratio 90% or more, (practically complete withering)) | b (directly sown rice) effect on crop grade (directly sown rice [30]): 5 (weed kill ratio 90% or more, (practically complete withering)) | c (corn) effect on crop grade (corn [31]): 3 (weed kill ratio 40% or more, less than 70%) | d (soybean) effect on crop grade (soybean [32]): 4 (weed kill ratio 70% or more, less than 90%) | e (wheat) effect on crop grade (wheat [33]): 5 (weed kill ratio 90% or more, (practically complete withering)) | f (beet) effect on crop grade (beet [34]): 5 (weed kill ratio 90% or more, (practically complete withering))
